One experiment relates to rabbits. Briefly: Immunization of rabbits with glycolipid, antibody titers by ELISA. Format: in vivo, New Zealand White rabbits. Here is the method:
FIG. 10 is a graph showing antibody titers of sera from rabbits immunized with the glycolipid of formula B. Antibody titers were measured by an ELISA, as described below, and represent an average of four different rabbit sera, diluted 1:100, each tested in three independent assays. Open bars, IgG titers; gray bars, IgM titers; brackets, standard deviation.
(§1) Immunization and Immunostaining—Groups of ten female NIH Swiss albino mice (5-6 weeks old, general purpose) were immunized intraperitoneally with 2 doses of BBGL-II emulsified in complete Freund's adjuvant (first dose) or incomplete Freund's adjuvant (second dose) two weeks apart. The doses contained 10 μg BBGL-II per 0.1 ml and were administered IP in 0.1 ml. Alternatively, mice were immunized three times, 2 weeks apart, with 10 μg of BBGL-II emulsified in 0.1 ml of DMSO, squalene, or PBS. Mice were bled 2 weeks after the second dose and the sera thus obtained was kept at −20° C. until used. Rabbits (females, New Zealand White, 8 weeks old) were immunized with two doses of BBGL-II, 75 μg each, in Fruend's adjuvant, administered i.m. and i.c. in 20×0.05 ml.
(In general: ELISA stands for enzyme-linked immunosorbent assay.)

For the next experiment, the system named is mice. The experiment in a line: Immunization of mice with glycolipid, antibody titers by ELISA. Format: in vivo, NIH Swiss albino mice. Here is the method:
FIG. 11 is a graph showing antibody titers of sera from ice immunized with the glycolipid of formula B. Mice (10 mice per group) were immunized as described below, with the glycolipid of formula B in Freund's adjuvant (CFA); PBS; DMSO, or squalene. Antibody titers were determined by an ELISA in sera diluted 1:100, and are represented as an average of three independent assays. Brackets, standard deviation.
as §1

Experiment [1] in a line: ELISA and TLC overlay assays of antibodies raised against the synthetic analog. Format: in vivo. As for the experimental part: Immunostaining of membrane lipids was performed as previously described (15). Developed chromatogram plates, containing lipid spots, were coated with polyisobutyl-methacrylate solution (0.05% in hexane) and allowed to dry. The plates were then blocked with PBS containing 1% BSA and 0.05% tween 20 for 15 minutes, and then incubated with anti BBGL-II antiserum, diluted 1:100 in PBS-BSA buffer for 1 hour at 22° C. The plates were rinsed 5 times with PBS-BSA buffer and incubated with alkaline phosphatase-conjugated rat anti mouse IgG (KPL, MD) diluted 1:25,000 in PBS-BSA for 1 hour at 22° C. The plates were then washed, and developed using BCIP/NBT (KPL, MD).

Experiment [2] is described as follows: Antibodies induced by BBGL-III (data not shown). Format: in vivo.
Experiment [3] deals with immobilized polymixin B on agarose. Briefly: Affinity chromatography on Detoxi-Gel Endotoxin Removing Gel. In kind it is binding. The conditions noted are these: sonicated B. burgdorferi cells loaded; bound material eluted with 1% deoxycholic acid; TLC and immunolabeling. As for the experimental part: Affinity Chromatography—BBGL-II was also purified by affinity chromatography using Detoxi-Gel Endotoxin Removing Gel (Pierce, Rockford, Ill.). Borrelia cells were washed 5 times with PBS, resuspended in the same buffer, and disrupted by ultrasonic treatment for 30 seconds, in a Branson sonifier operated at 50% duty cycles at 100 W. Membranes were separated from the soluble fraction by centrifugation at 37000 g for 30 minutes, and the supernatant (1 ml containing 1 mg total protein) was loaded on a detoxi-gel (agarose-immobilized-polymixin B) column (0.9×10 cm). The column was washed with 10 bed-volumes of PBS. Elution of the bound material was performed by washing with 10 bed volumes of PBS containing 1% Deoxycholic acid (w/v), according to the manufacturer's instructions. The bound fraction was dialyzed against distilled water, lyophilized, and lipids were extracted as mentioned.
This resin consists of immobilized polymixin B on agarose, and is used for the removal of endotoxins by binding to the lipid A portion of LPS.

“Also recorded” adds a separate entry of the source.

As to `CCCCCCCCCCCCCCCC(=O)OC[C@H]1O[C@@H](O[C@H]2CC[C@@]3(C)C(=CC[C@H]4[C@@H]5CC[C@H]([C@H](C)CCCC(C)C)[C@@]5(C)CC[C@@H]43)C2)[C@H](O)[C@@H](O)[C@H]1O` [BBGL-II, cholesteryl 6-O-palmitoyl-β-D-galactopyranoside], the “isotype of elicited antibodies” value in the experiment with rabbits and in the experiment with mice (mice) was “mostly of the IgM isotype” throughout. In addition, the “specificity of elicited antibodies” value in the experiment with rabbits and with mice (mice) was “specific to the homologous glycolipid” each time. Also, the induction of antibodies result in the experiment on rabbits (Freund's adjuvant) and in the experiment on mice (mice injected with various formulations) was “Specific antibodies were induced; also recorded: elicited antibodies” throughout. The “relative immunogenicity by formulation” value with mice (in PBS (likely as micelles) compared with solute in DMSO or squalene) is recorded as “more immunogenic than as a solute in DMSO or squalene”. The “antibody titers by formulation” value in the experiment on mice (with Freund's adjuvant, compared with PBS, DMSO, squalene) is given as “Highest titers”.

`CC(C)CCCC(C)C1CCC2C3CC=C4CC(OC5OC(COC(=O)CCCCCCCCCCCCCCCN=[N+]=[N-])C(O)C(O)C5O)CCC4(C)C3CCC12C` (stereo not shown) [compound 19]: the “antibodies raised, compared with purified native BBGL-II” value in experiment [1] is “to the same extent as with the purified native BBGL-II”.

Turning to “1,2-diacyl-3-[O-α-D-galactopyranosyl]-sn-glycerol [BBGL-III]”, the “isotype of induced antibodies” value in experiment [2] (data not shown) is given as “mostly IgM”. Further, the induction of antibodies result in experiment [2] (data not shown, species not stated) is “induced antibodies; also recorded: elicited antibodies”. The “reactivity of induced antibodies with BBGL-II and BBGL-III” value in experiment [2] (in vivo) is “reacted with both glycolipids”. In addition, the “binding to Detoxi-Gel (polymixin B) column” value in experiment [3] is given as “not bound to the column”.
